Source: US8344135B2, “Heterocyclic compound and use thereof” (Takeda Pharmaceutical Company Limited, priority 2007, dated 2013)

The molecules below were run on MEK1/2 phosphorylation (Ser217/221) in HT-29 cells (assay: Colon cancer cell HT-29 intracellular MEK phosphorylation inhibitory action in vitro). Settings: Homo sapiens, 2 hr treatment, Western blot of phosphorylated MEK1/2.
Type: cell-based
Protocol: Colon Cancer Cell HT-29 Intracellular MEK Phosphorylation Inhibitory Action in vitro
A cell suspension (500 μL) of human colon cancer cell HT-29 was plated in a 48-well plate (100,000 cells/well), and the cells were cultured overnight at 37° C. in the presence of 5% CO2, treated with a test compound (250 μL/well) diluted in 3-fold dilution series and cultured for two more hours. After 2 hr, the culture medium containing the test compound was removed, and the cells were lysed with SDS sample buffer (100 μL/well) and heated at 95° C. for 5 min. Thereafter, the cells were applied to SDS-PAGE, and the protein was transferred onto Sequi-Blot™ PVDF Membrane (Bio-Rad) by the Western blot method. The cells were blocked with a block-Ace solution (Snow Brand Milk Products Co., Ltd) dissolved in phosphate buffer to 5% W/V, and reacted overnight with anti-phosphorylated MEK1/2 (Ser217/221) (Cell signaling #9121) diluted 1000-fold with phosphate buffer containing 0.4% block-Ace. The membrane was washed with phosphate buffer containing 0.1% Tween 20 (Wako Pure Chemical Industries, Ltd.), and reacted at room temperature for 1 hr with HRP labeled rabbit IgG polyclonal antibody (Cell signaling #7074) diluted 1000-fold with phosphate buffer containing 0.4% block-Ace. The membrane was washed in the same manner as above, chemical luminescence of a phosphorylated MEK1/2 protein labeled with the antibody, which was caused by ECL-plus Detection Reagent (Amersham bioscience), was detected by Luminescent Image Analyzer LAS-1000 (FUJIFILM Corporation).

SMILES	IC50 [nM]
COc1ccc(NC(=O)c2cccc(C3(C#N)CC3)c2)cc1Oc1ccc2nc(NC(=O)CN3CCN(C)CC3)sc2n1 [Example C2, 3-(1-cyanocyclopropyl)-N-{4-methoxy-3-[(2-{[(4-methylpiperazin-1-yl)acetyl]amino}[1,3]thiazolo[5,4-b]pyridin-5-yl)oxy]phenyl}benzamide]	< 500
Cc1ccc(NC(=O)c2cccc(C(F)(F)F)c2)cc1Oc1ccc2nc(NC(=O)CO)sc2n1 [Example C9, N-(3-{[2-(glycoloylamino)[1,3]thiazolo[5,4-b]pyridin-5-yl]oxy}-4-methylphenyl)-3-(trifluoromethyl)benzamide]	< 500
Cc1ccc(NC(=O)c2cccc(C(F)(F)F)c2)cc1Oc1ccc2nc(NC(=O)CN3CCN(C)CC3)sc2n1 [Example C11, N-{4-methyl-3-[(2-{[(4-methylpiperazin-1-yl)acetyl]amino}[1,3]thiazolo[5,4-b]pyridin-5-yl)oxy]phenyl}-3-(trifluoromethyl)benzamide]	< 500
Cc1ccc(NC(=O)c2cccc(C(C)(C)C#N)c2)cc1Oc1ccc2nc(NC(=O)CO)sc2n1 [Example C13, 3-(1-cyano-1-methylethyl)-N-(3-{[2-(glycoloylamino)[1,3]thiazolo[5,4-b]pyridin-5-yl]oxy}-4-methylphenyl)benzamide]	< 500
Cc1ccc(NC(=O)c2cccc(C3(C#N)CC3)c2)cc1Oc1ccc2nc(NC(=O)C3CC3)sc2n1 [Example C16, 3-(1-cyanocyclopropyl)-N-[3-({2-[(cyclopropylcarbonyl)amino][1,3]thiazolo[5,4-b]pyridin-5-yl}oxy)-4-methylphenyl]benzamide]	< 500
N#CC1(c2cccc(C(=O)Nc3cccc(Oc4ccc5nc(NC(=O)C6CC6)sc5n4)c3)c2)CC1 [Example C26, 3-(1-cyanocyclopropyl)-N-[3-({2-[(cyclopropylcarbonyl)amino][1,3]thiazolo[5,4-b]pyridin-5-yl}oxy)phenyl]benzamide]	< 500
Cc1ccc(Oc2ccc3nc(NC(=O)CN4CCN(C)CC4)sc3n2)cc1NC(=O)c1cccc(C(C)(C)C#N)c1 [Example C35, 3-(1-cyano-1-methylethyl)-N-{2-methyl-5-[(2-{[(4-methylpiperazin-1-yl)acetyl]amino}[1,3]thiazolo[5,4-b]pyridin-5-yl)oxy]phenyl}benzamide]	< 500
CN(c1cccc(NC(=O)c2cccc(C(F)(F)F)c2)c1)c1ccc2nc(NC(=O)C3CC3)sc2n1 [Example C40, N-{3-[{2-[(cyclopropylcarbonyl)amino][1,3]thiazolo[5,4-b]pyridin-5-yl}(methyl)amino]phenyl}-3-(trifluoromethyl)benzamide]	< 500
CN1CCN(CC(=O)Nc2nc3ccc(Oc4cc(NC(=O)c5cccc(C(C)(C)C#N)c5)ccc4Cl)nc3s2)CC1 [Example C51]	< 500
CC(=O)Nc1nc2ccc(Oc3ccc(F)c(NC(=O)c4cccc(C5(C#N)CC5)c4Cl)c3)nc2s1 [Example C65, N-(5-{[2-(acetylamino)[1,3]thiazolo[5,4-b]pyridin-5-yl]oxy}-2-fluorophenyl)-2-chloro-3-(1-cyanocyclopropyl)benzamide]	< 500
Cc1ccc(NC(=O)c2cccc(C(C)(C)C#N)c2)cc1Oc1ccc2nc(NC(=O)/C=C/c3ccc(Cl)cc3)sc2n1 [Example C99, N-{3-[(2-{[(2E)-3-(4-chlorophenyl)prop-2-enoyl]amino}[1,3]thiazolo[5,4-b]pyridin-5-yl)oxy]-4-methylphenyl}-3-(1-cyano-1-methylethyl)benzamide]	< 500
CN(c1cccc(NC(=O)c2cccc(C(F)(F)F)c2)c1)c1ncc2nc(NC(=O)C3CC3)sc2n1 [Example D2, N-{3-[{2-[(cyclopropylcarbonyl)amino][1,3]thiazolo[5,4-d]pyrimidin-5-yl}(methyl)amino]phenyl}-3-(trifluoromethyl)benzamide]	< 500

The molecules below were run against T1, BRAF (V600E) (Homo sapiens, UniProt P15056, V600E) (assay: Determination of BRAF (V600E) kinase inhibitory activity). Settings: test compound 1.0 μM; substrate GST-MEK1 (K96R); [γ-32P]ATP; read-out: Inhibitory rate (%) at 1.0 μM.
T1 construct: area encoding the BRAF kinase domain region, so that the protein contains an N-terminal Flag; made in house; host or cells: SF-21 insect cells infected with recombinant baculovirus BAC-V600E
Type: biochemical
Protocol: Determination of BRAF (V600E) Kinase Inhibitory Activity
A test compound (2.5 μL) dissolved in dimethyl sulfoxide (DMSO) was added to 37.5 μL of a reaction solution (25 mM HEPES (pH 7.5), 10 mM magnesium acetate, 1 mM dithiothreitol) containing BRAF (V600E) enzyme (30 ng) and recombinant type protein GST-MEK1 (K96R) 250 ng, and the mixture was incubated at room temperature for 10 min. ATP solution (10 μL, 2.5 μM ATP, 0.1 μCi [γ-^32P]ATP) was added to the obtained mixture, and the mixture was reacted at room temperature for 20 min. The reaction was quenched by adding 50 μL of ice-cooled 20% trichloroacetic acid (Wako Pure Chemical Industries, Ltd.). The reaction solution was allowed to stand at 4° C. for 30 min, and the acid-precipitable fraction was transferred to GF/C filter plate (Millipore Corporation) using cell harvester (PerkinElmer). The plate was dried at 45° C. for 60 min, and 40 μL of MicroScinti 0 (PerkinElmer) was added thereto. The radioactivity was measured using TopCount (PerkinElmer). The kinase inhibitory rate (%) of the test compound was calculated by the following formula: Inhibitory rate (%)=(1−(count of test compound−blank)÷(control−blank))×100
The count of the solution reacted without addition of the compound was used as a “control”, and the count of the solution without the compound and enzyme was used as a “blank”.

T1 sequence (P15056 457-717 V600E limits assumed): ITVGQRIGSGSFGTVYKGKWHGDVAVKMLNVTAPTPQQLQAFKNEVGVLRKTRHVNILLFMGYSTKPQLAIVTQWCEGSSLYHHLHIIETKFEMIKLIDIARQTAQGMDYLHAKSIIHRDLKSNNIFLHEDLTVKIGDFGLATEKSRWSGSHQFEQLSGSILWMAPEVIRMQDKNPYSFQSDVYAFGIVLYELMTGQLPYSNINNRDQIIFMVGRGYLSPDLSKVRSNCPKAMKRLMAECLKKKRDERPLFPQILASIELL

SMILES	inhibition at 1 µM [%]
CC(C)(C#N)c1cccc(C(=O)Nc2cc(Oc3ccc4nc(NC(=O)C5CC5)sc4n3)c(Cl)cc2F)c1 [Example C60, N-[4-chloro-5-({2-[(cyclopropylcarbonyl)amino][1,3]thiazolo[5,4-b]pyridin-5-yl}oxy)-2-fluorophenyl]-3-(1-cyano-1-methylethyl)benzamide]	100
CC(C)(C#N)c1cccc(C(=O)Nc2cc(Oc3ccc4nc(NC(=O)C5CC5)sc4n3)ccc2F)c1Cl [Example C63, 2-chloro-3-(1-cyano-1-methylethyl)-N-[5-({2-[(cyclopropylcarbonyl)amino][1,3]thiazolo[5,4-b]pyridin-5-yl}oxy)-2-fluorophenyl]benzamide]	101
N#CC1(c2cccc(C(=O)Nc3cc(Oc4ccc5nc(NC(=O)C6CC6)sc5n4)c(F)cc3F)c2Cl)CC1 [Example C75, 2-chloro-3-(1-cyanocyclopropyl)-N-[5-({2-[(cyclopropylcarbonyl)amino][1,3]thiazolo[5,4-b]pyridin-5-yl}oxy)-2,4-difluorophenyl]benzamide]	100
CC(=O)Nc1nc2cnc(N(C)c3cccc(NC(=O)c4cccc(C(F)(F)F)c4)c3)nc2s1 [Example D1, N-{3-[[2-(acetylamino)[1,3]thiazolo[5,4-d]pyrimidin-5-yl](methyl)amino]phenyl}-3-(trifluoromethyl)benzamide]	98
